Experimental data taken from article PMC10482913, “A new class of anticancer activity with computational studies for a novel bioactive aminophosphonates based on pyrazole moiety” (Scientific Reports, 2023).
Read-outs that look alike come from different tables or passages of the source.

Columns and labels:
[1] = tested on: Colorectal carcinoma Colon cancer (HCT-116); assay: cells; format: cell-based, human; details: for IC50: Homo sapiens; for relative activity for colon carcinoma cells (HCT-116), in words: among all compounds
Description: (§1) Finally, all the studied phosphonate compounds have moderate to weak cytotoxicity activity on the normal cell WI-38.
(§2) The in vitro antitumor activity of the compounds under study in this research was investigated cell growth using the MTT assay, [31]. The human tumor cell lines that used to evaluate the activity are Human lung fibroblast (WI38), Colorectal carcinoma Colon cancer (HCT-116) and Epdermoid Carcinoma (HEP2). The MTT assay is a standard colorimetric assay that is used to measure cell growth. It is used to determine cytotoxicity of potential medicinal agents and other toxic materials. Detailed procedures for the MTT assay method is presented in the supporting information (Sect. S2). […]
(§3) Cytotoxicity Assay (Section S2)
(§4) The cell lines Human lung fibroblast (WI38), Colorectal carcinoma Colon cancer (HCT-116) and Epdermoid Carcinoma (HEP2) were used to determine the inhibitory effects of compounds on cell growth using the MTT assay. This colorimetric assay is based on the conversion of the yellow tetrazolium bromide (MTT) to a purple formazan derivative by mitochondrial succinate dehydrogenase in viable cells. Cell lines were cultured in RPMI-1640 medium with 10% fetal bovine serum. Antibiotics added were 100 units/ml penicillin and 100µg/ml streptomycin at 37 C in a 5% Co2 incubator. The cell lines were seedes in a 96-well plate at a density of 1.0x10^4 cells/well.
(§5) At 37 C for 48 h under 5% CO2. After incubation the cells were treated with different concentration of compounds and incubated for 24 h. After 24 h of drug treatment, 20 µl of MTT solution at […]
(§6) 5mg/ml was added and incubated for 4 h. Dimethyl sulfoxide (DMSO) in volume of 100 µl is added into each well to dissolve the purple formazan formed. The colorimetric assay is measured and recorded at absorbance of 570 nm using a plate reader (EXL 800, USA). The relative cell viability in percentage was calculated as (A570 of treated samples/A570 of untreated sample) X 100.

[2] = tested on: Human lung fibroblast normal cell line (WI38); assay: cells; format: cell-based
Description: as §1, §2, §3, §4, §5, §6

[3] = tested on: Epdermoid Carcinoma (HEP2); format: cell-based, human; details: among all compounds
Description: as §2, §3
as §4, with “Antibiotics added were 100 units/ml penicillin and 100µg/ml streptomycin at 37 C in a 5% Co2 incubator. The cell lines were seedes in a 96-well plate at a density of 1.0x10^4 cells/well.” left out
5mg/ml was added and incubated for 4 h. […] The colorimetric assay is measured and recorded at absorbance of 570 nm using a plate reader (EXL 800, USA). The relative cell viability in percentage was calculated as (A570 of treated samples/A570 of untreated sample) X 100.

[4] = HCT-116, Figure 4, unit inferred, read-out: IC50 against colon carcinoma cells (HCT-116)
[5] = WI-38, Figure 6, unit inferred, read-out: IC50 against normal cell line (WI38)
[6] = HCT-116, read-out: IC50 against colon carcinoma cells (HCT-116)
[7] = WI-38, read-out: IC50 against normal cell line (WI38)

Compound	IC50 [1, 4] [µM]	IC50 [2, 5] [µM]	melting point [°C]	relative activity for colon carcinoma cells (HCT-116), in words [1]	IC50 [1, 6] [µM]	IC50 [2, 7] [µM]	relative activity for Epdermoid Carcinoma (HEP2), in words [3]
CCOP(=O)(OCC)C(Nc1cc(-c2ccc([N+](=O)[O-])cc2)nn1-c1ccccc1)c1cccc(O)c1 (stereo not drawn) [Compound 2b, Diethyl{(3-(4-nitrophenyl)-1-phenyl-1H-pyrazol-5-ylamino)(3-hydroxyphenyl)}methylphosphonate]	84.5	55.7	252 to 254	–	–	–	–
CCOP(=O)(OCC)C(Nc1cc(-c2ccc([N+](=O)[O-])cc2)nn1-c1ccccc1)c1cccc(Cl)c1 (stereo not drawn) [Compound 2c, Diethyl{(3-(4-nitrophenyl)-1-phenyl-1H-pyrazol-5-ylamino)(3-chlorophenyl)}methylphosphonate]	45.7	29.7	150 to 152	–	–	–	–
CCOP(=O)(OCC)C(Nc1cc(-c2ccc([N+](=O)[O-])cc2)nn1-c1ccccc1)c1ccc([N+](=O)[O-])cc1 (stereo not drawn) [Compound 2d, Diethyl{(3-(4-nitrophenyl)-1-phenyl-1H-pyrazol-5-ylamino)(4-nitrophenyl)}methylphosphonate]	19.9	41.9	234 to 235	strongest activity	–	–	–
CCOP(=O)(OCC)C(Nc1cc(-c2ccc([N+](=O)[O-])cc2)nn1-c1ccccc1)c1ccc(Cl)cc1 (stereo not drawn) [Compound 2e, Diethyl{(3-(4-nitrophenyl)-1-phenyl-1H-pyrazol-5-ylamino)(4-chlorophenyl)}methylphosphonate]	57.3	86.3	298 to 300	–	–	–	–
CCOP(=O)(OCC)C(Nc1cc(-c2ccccc2)nn1-c1ccc([N+](=O)[O-])cc1[N+](=O)[O-])c1ccc(N(C)C)cc1 (stereo not drawn) [Compound 2f, Diethyl{(1-(2,4-dinitrophenyl)-3-phenyl-1H-pyrazol-5-ylamino)(4-N,Ndimethylaminophenyl)} methyl phosphonate]	37.8	65.1	244 to 246	–	–	–	–
O=[N+]([O-])c1ccc(-c2cc(NC(c3cccc(O)c3)P(=O)(Oc3ccccc3)Oc3ccccc3)n(-c3ccccc3)n2)cc1 (stereo not drawn) [Compound 4a, Diphenyl{(3-(4-nitrophenyl)-1-phenyl-1H-pyrazol-5-ylamino)(3-hydroxyphenyl)}methylphosphonate]	–	–	266 to 268	–	73.2	47.1	–
O=[N+]([O-])c1ccc(-c2cc(NC(c3ccc([N+](=O)[O-])cc3)P(=O)(Oc3ccccc3)Oc3ccccc3)n(-c3ccccc3)n2)cc1 (stereo not drawn) [Compound 4b, Diphenyl{(3-(4-nitrophenyl)-1-phenyl-1H-pyrazol-5-ylamino)(4-nitrophenyl)}methylphosphonate]	–	–	167 to 168	strongest activity	15.1	62.8	highest activity
O=[N+]([O-])c1cccc(C(Nc2cc(-c3ccccc3)nn2-c2ccc([N+](=O)[O-])cc2[N+](=O)[O-])P(=O)(Oc2ccccc2)Oc2ccccc2)c1 (stereo not drawn) [Compound 4c, Diphenyl{(1-(2,4-dinitrophenyl)-3-phenyl-1H-pyrazol-5-ylamino)(3-nitrophenyl)}methyl phosphonate]	–	–	–	–	51.3	> 100	–
CN(C)c1ccc(C(Nc2cc(-c3ccccc3)nn2-c2ccc([N+](=O)[O-])cc2[N+](=O)[O-])P(=O)(Oc2ccccc2)Oc2ccccc2)cc1 (stereo not drawn) [Compound 4d, Diphenyl{(1-(2,4-dinitrophenyl)-3-phenyl-1H-pyrazol-5-ylamino)(4-N,N-dimethylaminophenyl)} methyl phosphonate]	–	–	212 to 214	–	26.1	78.3	highest activity
